These results are taken from patent US8202882B2, “5-cyanothienopyridines for the treatment of tumours” (Merck Patent Gesellschaft MIT Beschränkter Haftung, priority 2007, dated 2012).

One may read the IC50 as the point on the concentration scale where inhibition reaches its midpoint. A lower IC50 goes with higher potency.

The experiment addresses T1, GST-ALK5 (TGF-beta receptor I kinase) (Homo sapiens, UniProt P36897).
T1 sequence (P36897 34-503): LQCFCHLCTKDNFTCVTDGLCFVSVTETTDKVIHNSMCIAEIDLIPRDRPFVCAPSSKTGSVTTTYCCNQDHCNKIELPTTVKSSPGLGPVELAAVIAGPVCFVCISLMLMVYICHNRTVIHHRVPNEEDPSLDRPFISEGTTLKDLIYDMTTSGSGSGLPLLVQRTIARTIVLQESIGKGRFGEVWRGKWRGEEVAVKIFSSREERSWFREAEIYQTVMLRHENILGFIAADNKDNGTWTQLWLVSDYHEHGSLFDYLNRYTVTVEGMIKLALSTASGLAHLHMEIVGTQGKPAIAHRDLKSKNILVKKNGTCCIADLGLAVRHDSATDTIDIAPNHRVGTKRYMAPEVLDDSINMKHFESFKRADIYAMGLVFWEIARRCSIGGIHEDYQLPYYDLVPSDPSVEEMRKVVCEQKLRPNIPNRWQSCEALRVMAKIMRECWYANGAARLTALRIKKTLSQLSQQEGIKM
Kind of experiment: In-vitro (enzyme) kinase assay, 384-well flashplate; inhibition of TGF-beta. It is filed as biochemical. The conditions noted are these: GST-ALK5 with GST-SMAD2 substrate, 3 mM ATP (33P-ATP), 30° C., 45 min. The procedure:
In-Vitro (Enzyme) Assay for the Determination of the Efficacy of Inhibitors of the Inhibition of TGF-Beta-Promoted Effects Vermittelten Wirkungen
The kinase assay is carried out as 384-well flashplate assay. 31.2 nM of GST-ALK5, 439 nM of GST-SMAD2 and 3 mM of ATP (with 0.3 μCi of ^33P-ATP/well) are incubated in a total volume of 35 μl (20 mM of HEPES, 10 mM of MgCl, 5 mM of MnCl, 1 mM of DTT, 0.1% of BSA, pH 7.4) without or with test substance (5-10 concentrations) at 30° C. for 45 min. The reaction is stopped using 25 μl of 200 mM EDTA solution, filtered with suction at room temperature after 30 min, and the wells are washed with 3 times 100 μl of 0.9% NaCl solution. Radioactivity is measured in the TopCount. The IC50 values are calculated using RS1.
On to `N#Cc1c(N)nc2sc(C(N)=O)c(N)c2c1-c1nc2ccccc2s1` [Compound A16, 3,6-Diamino-4-benzothiazol-2-y1-5-cyanothieno[2,3-b]pyridine-2-carboxamide], for which the IC50 came to 290 nM.

`N#Cc1c(NCC(O)CO)nc2sc(C(N)=O)c(N)c2c1-c1cc2ccccc2o1` (stereo not shown) [Compound A41, 3-Amino-4-benzofuran-2-yl-5-cyano-6-(2,3-dihydroxypropylamino)thieno[2,3-b]pyridine-2-carboxamide] showed an IC50 of 180 nM.

The compound `CN1CCN(CCCNc2nc3sc(C(N)=O)c(N)c3c(-c3cc4ccccc4o3)c2C#N)CC1` [Compound A30, 3-amino-4-benzofuran-2-yl-5-cyano-6-[3-(4-methylpiperazin-1-yl)propylamino]thieno[2,3-b]pyridine-2-carboxamide] returned an IC50 of 63 nM.

The compound `CCS(=O)(=O)N1CCN(c2nc3sc(C(N)=O)c(N)c3c(-c3cc(C)c(C)o3)c2C#N)CC1` [Compound A53, 3-Amino-5-cyano-4-(4,5-dimethylfuran-2-yl)-6-(4-ethanesulfonylpiperazin-1-yl)thieno[2,3-b]pyridine-2-carboxamide] displayed an IC50 of 240 nM.
